Data: BindingDB's records for patent US11718622 (Exelixis, 2023)

What was measured:
Adenosine receptor A2a = Adenosine receptor A2a (Homo sapiens, UniProt P29274); experiment: ADORA1A Receptor Binding Assay
Description: 2 L of each compound (test compounds, high control compound, low control compound) was transferred into individual wells of an assay plate. Also, to each individual well, 98 µL of Adenosine A1a membrane stock (for ADORA1A Receptor Binding Assay) or Adenosine A2a membrane stock (for ADORA2A Receptor Binding Assay) was dispensed, followed by 100 L of radio-labeled ligand. Plates were then sealed and incubated at room temperature for 1 hour (for ADORA1A Receptor Binding Assay) or 2 hours (for ADORA2A Receptor Binding Assay). Unifilter-96 GF/C filter plates were pre-soaked with 50 µL of 0.3% PEI per well for at least 30 min at room temperature. When binding assays were completed, reaction mixtures were filtered through GF/C plates using a Perkin Elmer Filtermate Harvester, and then each plate was washed 4 with cold wash buffer. Filter plates were then dried for 1 hour at 50 ° C. After drying, the bottom of the filter plate wells was sealed using Perkin Elmer Unifilter-96 backing seal tape. […] 3H trapped on the filter was counted using a Perkin Elmer MicroBeta2 Reader. Data analysis was performed using GraphPad Prism 5 software, and the Inhibition [% Control] was calculated using the following equation: % Inh=(1 Background subtracted Assay value/Background subtracted HC value) *100.

Adenosine receptor A2b = molecular target: T1, Adenosine receptor A2b (Homo sapiens, UniProt P29275); experiment: ADORA2B Receptor Binding Assay
T1 sequence (P29275 whole entry): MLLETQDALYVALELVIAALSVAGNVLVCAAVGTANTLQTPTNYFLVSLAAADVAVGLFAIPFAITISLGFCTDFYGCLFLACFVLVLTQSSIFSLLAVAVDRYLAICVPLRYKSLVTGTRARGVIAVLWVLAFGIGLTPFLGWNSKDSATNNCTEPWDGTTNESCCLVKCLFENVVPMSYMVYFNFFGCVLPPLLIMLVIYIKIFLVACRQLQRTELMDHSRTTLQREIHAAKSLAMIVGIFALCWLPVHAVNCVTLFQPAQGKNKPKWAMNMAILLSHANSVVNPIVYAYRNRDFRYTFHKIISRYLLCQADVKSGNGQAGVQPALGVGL
Description: 100 μL of Adenosine A2B membrane stock was dispensed into individual wells of an assay plate. 1 μL of each compound (test compounds, high control compound, low control compound) was then transferred into individual wells, followed by 100 μL of radio-labeled ligand. Plates were then sealed, and incubated at room temperature for 1 hour. Unifilter-96 GF/C filter plates were pre-soaked with 50 μL of 0.5% BSA per well for at least 30 min at room temperature. When binding assays were completed, reaction mixtures were filtered through GF/C plates using a Perkin Elmer Filtermate Harvester, and then each plate was washed 4× with cold wash buffer. Filter plates were then dried for 1 hour at 50° C. After drying, the bottom of the filter plate wells was sealed using Perkin Elmer Unifilter-96 backing seal tape. 50 μL of Perkin Elmer Microscint 20 cocktail was then added, and the top of the filter plate was then sealed using Perkin Elmer TopSeal-A sealing film. 3H trapped on the filter was counted using a Perkin Elmer MicroBeta2 Reader. Data analysis was performed using GraphPad Prism 5 software, and the Inhibition [% Control] was calculated using the following equation: % Inh=(1−Background subtracted Assay value/Background subtracted HC value) *100.

Sequence of Adenosine receptor A2a (P29274 whole entry): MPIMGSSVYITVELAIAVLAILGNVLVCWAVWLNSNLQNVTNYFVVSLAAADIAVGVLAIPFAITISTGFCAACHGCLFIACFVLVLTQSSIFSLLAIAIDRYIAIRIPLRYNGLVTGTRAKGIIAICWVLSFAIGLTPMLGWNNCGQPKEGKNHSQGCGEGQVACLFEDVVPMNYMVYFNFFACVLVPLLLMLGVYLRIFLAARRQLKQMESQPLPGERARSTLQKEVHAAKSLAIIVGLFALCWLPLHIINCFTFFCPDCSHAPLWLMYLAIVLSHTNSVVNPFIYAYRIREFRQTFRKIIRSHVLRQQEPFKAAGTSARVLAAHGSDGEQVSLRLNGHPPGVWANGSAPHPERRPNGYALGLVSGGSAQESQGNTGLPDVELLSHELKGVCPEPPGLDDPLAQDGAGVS

SMILES	IC50 (Adenosine receptor A2a) [nM]	IC50 (Adenosine receptor A2b) [nM]
Cc1ccc(-c2nc(N)c(C#N)c3nc(C(F)(F)F)nn23)o1 [US11718622, Compound 46]	< 10	< 10
Nc1nc2c(-c3ccco3)nc(NC(=O)C3CC3)cn2n1 [US11718622, Compound 186]	< 10	< 10
